US12599649B2, “Bioactive polypeptides for improvements in plant protection, growth and productivity” (priority 2017, dated 2026)
Where “and” joins values, the source holds several entries; their conditions need not be identical. Identical values can stand only once. No end group written: not given here. *: point of attachment. sulfo = O=S(=O)(O)*

Experiments:
soybean [1] = test: Soybean seed treatment with Flg22 polypeptides and RHPP, yield (Example 10); format: in vivo; settings: 12 locations
Description: A third study was set up to look at soybean seed treatment benefits of Bt.4Q7 Flg22, RI Bt.4Q7Flg22, Ec.RI Flg22, and RHPP as a seed treatment on soybean.

corn [2] = test: Corn seed treatment with Flg22 polypeptides, yield (Example 10); format: in vivo; settings: second study, 12 locations
Method: The seed applications were provided using a 40 μM polypeptide stock diluted to the appropriate concentration in a slurry containing a fungicide, insecticide, beneficial bacteria, colorant and seed finisher (EverGol Energy (0.031 mg ai/seed), PONCHO/VOTiVO (0.6 mg ai/seed), Peridium 1006 (5 fl oz/cwt or 147.9 mL/cwt) and Pro-Ized Red Colorant (normal) (0.5 fl oz/cwt). Seed treatment was applied using a Wintersteiger HEGE II (Wintersteiger AG, Austria, Germany).
Seed was planted in 12 locations in the U.S. Midwest (IA, IL, IN). Sixteen randomized replicate blocks were harvested per each of the Flg22 polypeptide treatments consisting of Bt.4Q7Flg22 applied at 0.25 μM and 1.0 μM slurry concentration.
Replicated trials with 12 locations were set up as above. […] The Ec. Flg22 polypeptide gave 2.8 Bu/Ac (175.8 kg/Ha) advantage at 70% win rate, and the Ec.RI Flg22 gave no benefit.

soybean [3] = test: Flg22 and RHPP on R2 soybean, field yield (Examples 3-4); settings: second study, R2 foliar
corn [4] = test: Foliar E. coli flagellin polypeptides on V5-V8 corn, yield (Example 5); format: in vivo; settings: V5-V8, 0.33 Fl. oz/Ac, 12 locations
Method: The effect of flagellin polypeptides derived from Escherichia coli on corn yield was then tested. Corn plants (Beck's 5828 YH) received an initial spray application at the V5-V8 stage of development with formulations containing the Ec.
FIG. 5 depicts yield across these 12 locations, normalized to the non-treated control plants and shown as an increase or a decrease in Bu/Ac compared to the control. […] Therefore, application of foliar sprays containing the Ec.Flg22 (SEQ ID NO: 526) bioactive priming polypeptides provided a beneficial growth response and yield benefit to corn plants when applied at the V5-V8 stage of development.

corn [5] = test: Foliar Flg22 polypeptides on corn, field yield trials (Example 1); format: in vivo; settings: first year field trials, 10 locations, vs non-treated control
Method: Flg22 (SEQ ID NO 526) and Ec.RI Flg22 (SEQ ID 527) bioactive priming polypeptides on corn (BECK'S 5828 YH, 6175YE) yield was determined in 10 separate locations in the US Midwest (FIG. 2 and FIG. 3).
Four-row plots, 17.5 feet (5.3 meters) long were planted at all locations. […] Each hybrid was grown in at least three separate plots (replicates) at each location to account for field variability.
The final concentration in the spray tank was 25 nM after dilution in carrier rate of 10 gallons water/Ac […]. […] Retro-inverso polypeptides were applied during the first year field trials to compare with native Bt.4Q7Flg22. […] Each polypeptide was applied with a non-ionic surfactant at 0.5%. The effect of bioactive priming polypeptides was measured as the absolute changes in yield in bushels per acre (Bu/Ac). Additionally, the win rate was calculated: the percentage of testing locations at which one treatment has a yield advantage over other treatments (in this case, as compared to the non-treated control plants).
Each study was performed at between 10 and 11 sites. The end results of the study at V5-V8 at 0.33 Fl. oz/Ac (24.1 mL/Ha) was 5.75 Bu/Ac or 360.9 kg/Ha advantage, at 4 Fl. oz/Ac a 3.77 bu/Ac or 236.6 kg/Ha advantage, and at 8 Fl. oz/Ac a 5.05 Bu/Ac or 317 kg/Ha.

soybean [6] = test: Foliar Ec.Flg22 on V2-V3 soybean, plant height in growth room (Example 6); format: in vivo; settings: 0.33 Fl. oz/Ac, 2 weeks after application
corn [7] = test: Corn plant height in non-stress and heat/water deficit stress environments (Example 8); format: in vivo; settings: foliar 1 μM
Method: Control plants were treated only with water.

soybean [8] = test: Foliar At.PSKα on soybean, field yield (Example 20); format: in vivo
Method: (§1) The effect of Phytosulfokine alpha (PSKα), a sulfonated bioactive priming polypeptide derived from Arabidopsis thaliana, on corn and soybean yield was tested. Corn and soybeans were cultivated in the field as described in Example 1 and 3. Arabidopsis thaliana PSKα (SEQ ID NO: 598) was applied at a final concentration of 1 μM in foliar spray with a surfactant and provided using a uniform application to the above ground plant parts of corn (hybrid 5140RR) and soybean (hybrid 375 NR). At.PSKα formulations were applied at the V5-V8 stage of development in corn and the V1-V4 stage of development in soybean. Corn and soybean plants treated with At.PSKα were compared to non-treated control plants (water). Treated plants were randomized at one location in four replicate blocks for comparisons to the controls. Yield was reported in Bushels per acre (Bu/Ac).

soybean [9] = test: Foliar At.PSKα on soybean in non-stress and stress environments (Example 21); format: in vivo; settings: V1-V4 foliar
Method: Soybean plants were grown as described in Example 6. The At.PSKα polypeptide (SEQ ID NO: 598) was applied as a foliar spray to the plants at the V1-V4 stage. Soybean plants treated with foliar applications of At.PSKα and control plants treated with water and surfactant alone were then grown in conditions described in Examples 7-9 that produced a non-stress and stress (heat and water deficit) environments. Table 37 describes the percentage change or increase in height reported for soybean plants treated with At.PSKα as a foliar spray at the V1-V4 growth stage.

corn [10] = test: Foliar At.PSKα on corn, field yield (Example 20); format: in vivo
Method: as §1

corn [11] = test: Foliar HpaG-like and At.PSKα on corn, plant height in non-stress and stress (Example 27); format: in vivo
corn [12] = test: Foliar Flg22 and retro inverso Flg22 on corn, plant height (Example 7); format: in vivo; settings: 1 μM
Method: Control plants were treated with water alone.

corn [13] = test: Corn seed treatment with Bt.4Q7Flg22 and Pa.Flg22, yield (Example 36); format: in vivo; settings: 1 uM in slurry, 3 hybrids, 8 locations
Method: Seed treatment compositions of the Flg22 polypeptides were applied as described in Table 53 as Fl. oz per unit of corn or soy seeds in a total slurry volume containing the base seed treatment Bt.4Q7Flg22 from Bacillus thuringinesis (Composition 10) and Pa. Flg22 from Paenibacillus alvei (Composition 11). Final concentration of polypeptide in the slurry for Compositions 10 and 11 was 1 uM.
The average change in Bu/Ac was as compared to the corn plants grown from seed that received the only the base seed treatment (ST) and is reported in Table 54.

[14] = test system: reactive oxygen species (ROS) production in corn tissue; test: ROS activity assay, corn tissue (Examples 15-18); format: cell-based
soybean [15] = test: Soybean seed treatment with Flg22 polypeptides and cellobiose, yield (Example 38); format: in vivo; settings: polypeptide at 1.0 μM (combination 0.33 μM each; cellobiose 1 mM)
Method: Seed treatments were applied to 1 soybean hybrid (variety) planted in 1 locations in the US Midwest (Columbia, MO). […] The application use rates per each seed treatment were held constant at 0.14 Fl. oz/Ac or 4.14 mL/unit. Final concentration of the Flg22 polypeptides in the slurry for were standardized to 1 uM per seed. The same final concentration of cellobiose that was applied in combination treatments with the Flg22 polypeptides was at 1.0 mM per seed. Four replicate plots per each seed treatment were randomized over the location. The average yield in Bu/Ac and the average change in Bu/Ac as compared to the control plants that received only the base seed treatment are reported in Table 58.

[16] = test system: reactive oxygen species (ROS) production in soybean leaf tissue; test: ROS activity assay, soybean leaf discs (Examples 15-18); format: cell-based
[17] = test system: reactive oxygen species (ROS) production in Kiwi 'Hayward' leaf petioles; test: ROS assay, kiwi leaf petioles (Example 54); format: cell-based, Actinidiae deliciosa; settings: 100 nM peptide, 40 minutes time course, SEM in the row below
Method: To test the sensitivity of kiwi leaves to 22-amino acid fragments of flagellin, 1 mm slices were cut through Actinidiae deliciosa Kiwi ‘Hayward’ leaf petioles and floated in 150 μL of water in a 96-well plate, with one slice per well. […] In two independent experiments, a total of 6 kiwi leaf petiole samples were treated with each Flg22 polypeptide in Table 94. The average total RLU and standard error of the means (SEM) was calculated for each treatment. A two-tailed T-test was used to determine significance at the 90% confidence level (P<0.1) between treatments. Relative ROS production was determined for each polypeptide in comparison to total RLUs for the 100 nM Bt.4Q7Flg22 control.

[18] = test system: Pseudomonas syringae pv. actinidiae (PSA-V); test: Potted kiwi disease trial, PSA-V leaf spot (Example 54); settings: 6, 16 and 23 DAI
[19] = test system: Candidatus liberibacter asiaticus; settings: in vivo

AIAQGAADDKASNIRLGSSLRE (not fully specified (some residues); also: retro-inverso D-amino acids, exact chain order not given here; listed as Escherichia coli) [Ec.RI Flg22, retro-inverso Flg22 from Escherichia coli]
win rate (soybean [1]): 73% | yield advantage (soybean [1]): 1.8 Bu/Ac | yield advantage (corn [2]): no benefit | yield increase (soybean [3]; 100 nM in the tank): 0.6 Bu/Ac | win rate (soybean [3]; 10-11 sites): 80% | average yield increase over non-treated plants (corn [4]): 1.9 Bu/Ac | win rate (corn [5]): 50% | average yield increase (corn [5]; foliar spray 0.33 Fl. oz/Ac, V5-V8 corn): 1.9 Bu/Ac | increase in plant height normalized to control (soybean [6]): 16% | plant height as percentage of control (corn [7]; heat/water stressed conditions): 103% | plant height as percentage of control (corn [7]; non-stressed conditions): 103%

At.PSKα: Phytosulfokine alpha, sulfonated polypeptide derived from Arabidopsis thaliana (Y(sulfo)IY(sulfo)TQ; listed as Arabidopsis thaliana)
yield increases Bu/Ac Foliar Soybean (soybean [8]; 1 μM foliar spray with surfactant at V1-V4, vs water control): 0.8 Bu/Ac | yield increase (soybean [8]; foliar 1 μM, V1-V4 soybean): 0.8 Bu/Ac | increase in height vs non-treated control (soybean [9]; non-stress environment): 3.5% | increase in height vs non-treated control (soybean [9]; stress (heat and water deficit) environments): 4.3% | yield increases Bu/Ac Foliar Corn (corn [10]; 1 μM foliar spray with surfactant at V5-V8, vs water control): 3.0 Bu/Ac | increase in overall yield (corn [10]; foliar 1 μM, V5-V8 corn): 3 Bu/Ac | Height (cm) and (STDEV) 3 weeks (corn [11]; corn, 3 weeks after emergence, measured before the foliar spray (baseline), HpaG-like 1 μM, At.PSKα 100 nM): 49.36 cm | Plant Height Normalized as a percentage of control height Stress (corn [11]; corn, 5 weeks, heat and water deficit stress, control surfactant alone): 107.8% | Plant Height Normalized as a percentage of control height Non-stress (corn [11]; corn, 5 weeks, control surfactant alone): 98.2% | Height (cm) after stress 5 weeks (corn [11]; corn, heat and water deficit stress, HpaG-like 1 μM, At.PSKα 100 nM foliar): 54.88 cm | Height (cm) after non-stress 5 weeks (corn [11]; corn, standard growth environment, HpaG-like 1 μM, At.PSKα 100 nM foliar): 58.62 cm | growth phenotype (plant height) vs control (corn [11]; heat and water deficit stress, HpaG-like 1 μM, PSKα): improved growth phenotype

Bt4Q7Flg 22 (DRLSSGKRINSASDDAAGLAIA; listed as Bacillus thuringiensis)
Δ Height (cm) (corn [12]; 3 to 5 weeks): 5.40 cm | Δ Height Normalized as a percentage of control height (corn [12]; vs water-treated control): +3.7%

GKLSSGLRINGASDDAAGLAIS (listed as Paenibacillus sp.) [Pa.Flg22]
yield increase vs base seed treatment (corn [13]): 3.57 Bu/Ac | Avg. Activity (%) Corn (5828 YX) 5 nM polypeptide [14]: 135.3% and 103.61% | Average Change in Bu/Ac compared to Untreated Control (soybean [15]): +0.28 Bu/Ac | Avg. Activity (%) Soybean (297 R4) 100 nM polypeptide [16]: 112.5% and 132.95%

TRLSSGLKINSAKDDAAGLQIA (listed as Pseudomonas syringae) [Flg22-PSA]
Average Total Relative Light Units (RLUs) [17]: 124,550 RLUs | PSA-V leaf spot symptoms in comparison to untreated control [18]: significantly reduced PSA-V leaf spot symptoms

thionin "tagged": thionin polypeptide that comprised a phloem localization sequence (SEQ ID NO: 650) (RTCESQSHRFKGPCSRDSNCATVCLTEGFSGGDCRGFRRRCRCTRPCVFDEK)
Ct values compared to control trees [19]: higher average Ct values
